As usually defined, the pIC50 is the negative decadic logarithm of the IC50, by convention in mol/L.

pIC50: −log10 of the molar value.

This test addresses T1, human placental aromatase (Homo sapiens, UniProt P11511).
T1 construct: utilizes the human placental microsomal fraction as enzyme source; from tissue; host or cells: human placenta, microsomal fraction
T1 sequence (P11511 1-503): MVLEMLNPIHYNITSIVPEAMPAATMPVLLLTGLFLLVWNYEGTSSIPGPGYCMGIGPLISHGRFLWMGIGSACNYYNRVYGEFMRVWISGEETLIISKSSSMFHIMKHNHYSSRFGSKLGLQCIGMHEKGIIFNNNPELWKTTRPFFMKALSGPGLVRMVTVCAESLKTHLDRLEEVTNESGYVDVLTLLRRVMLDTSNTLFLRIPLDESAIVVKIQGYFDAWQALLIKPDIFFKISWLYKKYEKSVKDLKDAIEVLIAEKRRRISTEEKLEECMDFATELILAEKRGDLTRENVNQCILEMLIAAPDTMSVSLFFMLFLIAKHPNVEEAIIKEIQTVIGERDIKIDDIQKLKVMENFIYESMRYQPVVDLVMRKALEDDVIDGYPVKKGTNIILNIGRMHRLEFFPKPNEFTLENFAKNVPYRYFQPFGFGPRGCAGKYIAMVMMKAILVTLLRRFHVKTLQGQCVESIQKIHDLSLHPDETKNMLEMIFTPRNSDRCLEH
Description: Inhibition of human placental aromatase (in vitro test of Thompson and Siiteri, 3H2O release from [1β-3H]androstenedione). The format is biochemical. The conditions noted are these: human placental microsomal fraction as enzyme source; compounds incubated for 15 min at 37°C with 50 nM [1β-3H]androstenedione in the presence of NADPH. The method, then: Estrogens are also involved in the pathogenesis of benign prostatic hyperplasia. Endogenous estrogens are ultimately formed from either androstenedione or testosterone as immediate precursors. The reaction of central importance is the aromatization of the steroidic ring A, which is performed by the enzyme aromatase. […] In this test the aromatization rate of androstenedione into estrone was evaluated by incubating (1β-^3H) androstenedione (50 nM) in the presence of NADPH with the enzyme preparation and by measuring the amount of^3H2O formed during 15 min incubation at 37°C.
`CCOC(=O)C1=C(C)NC(C)=C(C#N)C1c1cccc(-n2ccnc2)c1` (racemic) [FCE 29013, 4-(3-1H-imidazol-1-yl-phenyl)-2,6-dimethyl-1,4-dihydropyridine-3-carbonitrile-5-carboxylic acid ethyl ester]: the negative logarithm of the IC50 (pIC50) is 8.82.

`Cc1nc(C)c(C#N)c(-c2cccc(-n3ccnc3)c2)c1C#N` [FCE 28717, 4-(3-1H-imidazol-1-yl-phenyl)-2,6-dimethylpyridine-3,5-dicarbonitrile]: the pIC50 was 7.92.

As for `CC1=C(C#N)C(c2cccc(-n3ccnc3)c2)C(C#N)=C(C)N1` [FCE 28718, 4-(3-1H-imidazol-1-yl-phenyl)-2,6-dimethyl-1,4-dihydropyridine-3,5-dicarbonitrile], the pIC50 was 8.77.

In the case of `CC1=C(C#N)C(c2cccc(-n3cncn3)c2)C(C#N)=C(C)N1` [FCE 29138, 4-[3-(1,2,4)triazol-1-yl-phenyl]-2,6-dimethyl-1,4-dihydropyridine-3,5-dicarbonitrile], the pIC50 is 7.60.

Source of the values: patent EP0755931A1, “Dihydropyridine and pyridine derivatives and process for their preparation” (priority 1995, dated 1997).
